Measured values as given in patent US5424311A, “Azaquinoxalines and their use” (Hoeschst Aktiengesellschaft, priority 1992, dated 1995).
In brackets after ≈: the same amount, converted by molar mass.

Legend:
[1] = molecular target: T1, HIV reverse transcriptase (Human immunodeficiency virus type 1 group M subtype B, UniProt P04585); test: Inhibition of HIV reverse transcriptase (scintillation proximity assay, SPA); assay type: biochemical; conditions: RT-SPA; RT enzyme cloned from HIV in E. coli; 60 min (37° C.)
T1 construct: The RT enzyme (cloned from HIV in E. coli); purchased HT-Biotechnology LTD, Cambridge, UK; host or cells: E. coli
Experimental: Investigation of the substances for inhibition of HIV reverse transcriptase
The reverse transcriptase (RT) activity was determined by means of a scintillation proximity assay (SPA). The reagent kit for the RT-SPA was purchased from Amersham/Buchler (Braunschweig). The RT enzyme (cloned from HIV in E. coli) originated from HT-Biotechnology LTD, Cambridge, UK.
The assay was carried out according to the method manual of the manufacturer Amersham--with the following modifications:
Bovine serum albumin was added to the final concentration of 0.5 mg/ml to the assay buffer.
The assay was carried out in Eppendorf reaction vessels with a volume of 100 μl of mixture.
The RT concentrate from the manufacturer (5000 U/ml) was diluted to an activity of 15 U/ml in tris-HCl buffer 20 mM; pH 7.2; 30% glycerol.
The incubation time for the mixtures was 60 min (37° C.).
After stopping the reaction and "developing" with the bead suspension, 130 μl of mixture were transferred into 4.5 ml of tris-HCl buffer, 10 mM; pH 7.4; 0.15 M NaCl and the tritium activity was measured in a β-counter.
For a preliminary test of the inhibitory activity, the substances were dissolved in DMSO (stock solution c=1 mg/ml) and tested diluted 10^-1, 10^-2, 10^-3 etc. in DMSO.
To determine IC50 values, the inhibitor stock solutions were further diluted in tris-HCl buffer, 50 mM, pH 8 and tested in suitable concentrations.
The concentration appertaining to 50% enzyme inhibition was found from the graph of RT activity against the logarithm of the concentration of the particular test substance.

[2] = system: HIV; test: Tests on products against HIV in cell culture (T-cell culture assay, giant cell formation in infected lymphocytes); assay type: cell-based; conditions: Human immunodeficiency virus 1, 72 h, lowest product concentration at which no giant cells occurred, 37° C., 3 days
Experimental: Tests on products against HIV in cell culture
RPMI pH 6.8 Complete medium additionally contains 20% fetal calf serum and 40 IU/ml recombinant interleukin 2.
Lymphocytes isolated from fresh donor blood by means of ®Ficoll gradient centrifugation are cultivated in complete medium with the addition of 2 μg/ml phytohemagglutinin (Wellcome) at 37° C. under 5% CO2 for 36 h. The cells are, after addition of 10% DMSO, frozen at a cell density of 5×10^6 and stored in liquid nitrogen. For the test, the cells are thawed, washed in RPMI medium and cultivated in complete medium for 3-4 days.
The test products were dissolved in DMSO and adjusted with complete medium to a concentration of 1 mg/ml. 0.4 ml of medium was placed in 24-well dishes. After addition of 0.1 ml of the dissolved product to the upper row of the dish, a geometric dilution series was produced by transferring 0.1 ml each time. Product-free controls always received 0.4 ml of complete medium with 0.5% DMSO. Lymphocyte cultures with a cell count of 5×10^5 cells/ml were infected by adding 1/50 of the volume of supernatant from HIV-infected lymphocyte cultures. The titer of these culture supernatants was determined by endpoint dilution to be 1-5×10^6 infectious units/mi. After incubation at 37° C. for 30 min, the infected lymphocytes were spun down and taken up again in the same volume of medium. 0.6 ml portions of this cell suspension were placed in all the wells of the assay plate. The mixtures were incubated at 37° C. for 3 days.
The infected cell cultures were examined under the microscope for the presence of giant cells which indicate active virus replication in the culture. The lowest product concentration at which no giant cells occurred was determined as the HIV inhibitory concentration. As a control, the supernatants from the culture plates were examined for the presence of HIV antigen with the aid of an HIV antigen assay in accordance with the information from the manufacturer (Organon).

Row | Structure (SMILES) | IC50 [1] [µM] | MIC [2] [µg/mL]
1 | C=C(C)OC(=O)N1c2nc(C)ccc2NC(=S)C1C (racemic) [Example 20, (3RS)-4-(Isopropenyloxycarbonyl)-3,6-dimethyl-3,4-dihydro-1,4,5-triazanaphthalene-2(1H)-thione] | 3.61 to 36.1 | 
2 | C[C@@H]1Nc2nc(Cl)ccc2NC1=O [Example 2, (3S)-6-Chloro-3-methyl-3,4-dihydro-1,4,5-triazanaphthalen-2(1H)-one] | 5.06 to 50.6 | > 0.8
3 | CC(C)=CCN1c2nc(Cl)ccc2NC(=O)[C@@H]1C [Example 8, (3S)-6-Chloro-3-methyl-4-(3-methyl-2-butenyl)-3,4-dihydro-1,4,5-triazanaphthalen-2(1H)-one] | 0.376 to 3.76 | 0.08 (≈ 0.301 µM)
4 | C=C(C)OC(=O)N1C(=O)[C@H](C)N(C(=O)OC(=C)C)c2nc(Cl)ccc21 [Example 10, (3S)-6-Chloro-1,4-his(isopropenyloxycarbonyl)-3-methyl-3,4-dihydro-1,4,5-triazanaphthalen-2(1H)-one] | 0.273 to 2.73 | 1 (≈ 2.73 µM)
5 | C[C@H]1C(=O)Nc2ccc(Cl)nc2N1Cc1ccccn1 [Example 11, (3S)-6-Chloro-3-methyl-4-(2-picolyl)-3,4-dihydro-1,4,5-triazanaphthalen-2(1H)-one] | 0.346 to 3.46 | 0.2 (≈ 0.693 µM)
6 | CSCC1C(=S)Nc2cccnc2N1C(=O)OC(C)C (stereo not drawn) [Example 37, 4-Isopropoxycarbonyl-3-methylthiomethyl-3,4-dihydro-1,4,5-triazanaphthalene-2(1H)-thione] | 0.321 to 3.21 | > 1
7 | CC(C)OC(=O)N1c2ncccc2NC(=O)C1CS(C)(=O)=O (stereo not drawn) [Example 41, 3-Methylsulfonylmethyl-4-isopropoxycarbonyl-3,4-dihydro-1,4,5-triazanaphthalen-2(1H)-one] |  | > 2
